Experiment [1] relates to Mycobacterium tuberculosis. Nature of the experiment: Growth inhibition of multi-drug resistant Mycobacterium tuberculosis 05TB42059. The experiment is classed as functional.
Experiment [2] has as its system Mycobacterium tuberculosis. As to the kind of experiment: Growth inhibition of multi-drug resistant Mycobacterium tuberculosis DQ707 harboring katG S315N mutant. The experiment is classed as functional.

The structures appear in SMILES notation.

Broadly, the IC50 is the concentration that gives 50% inhibition. Read a low IC50 as greater potency. As for `Cc1c(-c2ccc(N3CCC(F)(F)C3)cc2)[nH]c2cc(F)cc(F)c2c1=O`, the half-maximal inhibitory concentration (IC50) is 140 nM in experiment [1] and 548 nM in experiment [2].

These data come from ChEMBL document CHEMBL4049411, “Rational Design, Synthesis, and Biological Evaluation of Heterocyclic Quinolones Targeting the Respiratory Chain of Mycobacterium tuberculosis” (J Med Chem, 2017).
